# Patent US12697366B2, “Thermogenic compositions and methods” (Ohio State Innovation Foundation, priority 2016, dated 2026)
# System: 3T3-L1 preadipocytes
# Assay: FD-glucose uptake in 3T3-L1 preadipocytes
# Format: cell-based, mouse
# Conditions: for glucose uptake compared to non-stimulated 3T3-L1 preadipocytes: 30 mins, insulin 10 μg/ml, EREG 50 ng/ml, forskolin 4 μg/ml
# Method: Non-differentiated, 90% confluent 3T3-L1 cells were starved with glucose-deprived medium for 40 min. Then cells were treated in the presence and absence of different concentrations of nanoscaffold #2 and bovine insulin (200 μg/mL), all of reagents dissolved in the same glucose-deprived medium but containing fluorescent-D (FD)-glucose for 80 min. Thereafter, the FD glucose uptake was measured according to manufacturer's instructions (Cayman Chemical, USA, cat #600471). […] Non-differentiated, 90% confluent 3T3-L1 cells treated in the presence and absence of different concentrations of nanoscaffold #2 and bovine insulin (10 μg/mL) or mouse epiregulin (EREG, 0.05 μg/mL) and incubated for 24 h. Then cells were starved with glucose-deprived medium for 40 min and, then incubated with fluorescent-D (FD)-glucose for 80 min. Thereafter, the FD glucose uptake was measured according to manufacturer's instructions (Cayman Chemical, USA, cat #600471). Data are shown as percent of uptake in the presence of insulin (100%).
# Non-differentiated, 90% confluent 3T3-L1 cells treated in the presence of bovine insulin (10 μg/mL), mouse epiregulin (EREG, 0.05 μg/mL), or their combinations and incubated for 24 h. Then cells were starved with glucose-deprived medium for 40 min and, then incubated with fluorescent-D (FD)-glucose for 80 min. Thereafter, the FD glucose uptake was measured according to manufacturer's instructions (Cayman Chemical, USA, cat #600471).
# Non-differentiated, 90% confluent 3T3-L1 cells were starved with glucose-deprived medium for 50 min. Then cells were treated in the presence and absence of different concentrations of mouse recombinant IGFBP4 with and without nanoscaffold #2 and human insulin (10 μg/mL). All of reagents were dissolved in the same glucose-deprived medium but containing fluorescent-D (FD)-glucose for 90 min. Thereafter, the FD glucose uptake was measured according to manufacturer's instructions (Cayman Chemical, USA, cat #600471).
# Glucose uptake assay was performed using glucose uptake cell-based assay kit (Cayman Chemical, Ann Arbor, MI). 3T3-L1 or human preadipocytes were cultured at a density of 5×10^4 per well into a 96-well plate (n=7) in high glucose media and grown overnight. Old cell culture medium was removed the next day and washed with PBS to remove residual glucose. Supplied 2-deoxy-2-[(7-nitro-2,1,3-benzoxadiazol-4-yl)amino]-D-glucose) (2-NBDG) was diluted to 150 μg/mL in DMEM medium without glucose, phenol red, L-glutamine, sodium pyruvate, and HEPES (Life technologies, Grand Island, New York). 100 μL of 2-NBDG glucose free medium with or without recombinant EREG and other treatments was added to the plated cells. After incubating at 37° C. for 30 minutes, cells were washed gently two times with 200 μL of glucose assay buffer. 100 μL of the assay buffer was added to each well and measured for fluorescence at an excitation/emission of 485/535 nm.
# Fluorescence glucose uptake (FD-glucose assay) was performed as described PMID: 32065973, using insulin, 1.7 μM and different AACs at concentration 0.1 μM.
# FD-glucose uptake in mouse 3T3-L1 preadipocytes (n=8 per treatment) treated with vehicle (Veh; PBS, open bar) or hINS (1.7 μM), mouse leptin (mLep; 12.5 nM, hatched bar), or AAC2 (0.1 μM black bar) in the presence and absence of GLUT1 inhibitor (BAY-876; 10 nM in DMSO). Cells were pre-treated with or without BAY-876 for 40 min and then FD glucose and treatment reagents were added for additional 80 min of incubation. Data (%) was normalized to FD-glucose uptake in control (Veh) 3T3-L1 cells without inhibitor (100%). Student's independent t-test.
Substance,glucose uptake compared to non-stimulated 3T3-L1 preadipocytes [%],"glucose uptake, dose dependence (different EREG concentrations)","glucose uptake in preadipocytes (hINS 1.7 μM, AAC2 0.1 μM, 80 min, FIG. 42A)"
"EREG: Epiregulin, member of the epidermal growth factor family; recombinant mouse or human protein",187,dose-dependent fashion,
insulin: insulin (bovine or human),174,,increase
